Earlier results, collected in US7459460B2, “Trisubstituted heteroaromatic compounds as calcium sensing receptor modulators” (Bristol-Myers Squibb Company, priority 2003, dated 2008).

What was measured:
[1] = OVX rats, oral administration, in the presence of an anti-resorptive agent
[2] = intravenous bolus injection
[3] = postmenopausal women, placebo-controlled trial

Compound | bone mass [1] | serum PTH [2] | reduce the risk of non-traumatic, non-spine fractures [3] [%] | reduce the risk of spine fractures [3] [%]
CC(C)(Cc1ccc2ccccc2c1)NC[C@@H](O)COc1cccc(Cl)c1C#N [NPS-2143] | increase in bone mass | transient increase in serum PTH | – | –
PTH peptide fragment (1-34): the PTH peptide fragment (1-34) of parathyroid hormone (SVSEIQLMHNLGKHLNSMERVEWLRKKLQDVHNF; Parathyroid hormone; UniProt P01270 32-65, looked up, fragment) | – | – | 54 | 65
